This is an account of results in US8669288B2, “Lysine salts of 4-((phenoxyalkyl)thio)-phenoxyacetic acid derivatives” (Janssen Pharmaceutica N.V., priority 2005, dated 2014).

Common to all, as to type: physicochemical
The nature of data set [1]: Solubility in distilled water.
The next data set is described as follows: pKa.
Data set [2] can be described thus: DVS isotherm, cycling humidity 0-90% RH. The following applies: 25° C., 0-90% RH in 10% RH increments. As for the experimental part:
The non-hydrate, L-lysine salt of the compound of formula (Ia) was subjected to cycling humidity conditions, with results as shown in FIG. 3. More specifically, the sample was analyzed through a full cycle in step mode at 25° C., from 0-90% RH (relative humidity) in 10% RH increments. The equilibration conditions set were as follows: dm/dt of 0.0007; dm/dt window of 5 mins; minimum and maximum stages of 15 and 360 minutes. Data was collected in 1 minute intervals. Nitrogen was used as the carrier gas.

Where a name gives a salt, the structure may show the parent alone. Some results are limits rather than exact numbers.

For the compound `CCO[C@H](COc1ccc(C(F)(F)F)cc1)CSc1ccc(OCC(=O)O)c(C)c1` [Compound of formula (la), (R)-{4-[2-Ethoxy-3-(4-trifluoromethyl-phenoxy)-propylsulfanyl]-2-methyl-phenoxy}-acetic acid], the solubility (as a rule, the dissolved amount per volume that the medium holds) in data set [1] (pH 7.4, water) was approximately 1 mg/mL; in data set [1] (water, pH 2.0) it was less than 0.002 mg/mL. The pKa (in general, the negative logarithm of the acid dissociation constant) in the data set “pKa” was determined as 3.63.
For the compound `CCO[C@H](COc1ccc(C(F)(F)F)cc1)CSc1ccc(OCC(=O)O)c(C)c1` [{4-[2-Ethoxy-3-(4-trifluoromethyl-phenoxy)-propylsulfanyl]-2-methyl-phenoxy}-acetic acid L-Lysine non-hydrate salt], the “Form conversion under cycling humidity conditions” value in data set [2] is “reversibly converts to the corresponding di-hydrate form by absorbing water”.
